Measured values published in patent US20170121344A1 (Siga Technologies, Inc., priority 2009, published 2017).
Like-named read-outs stand apart in the source and are kept apart here.

Key:
[1] = tested on: Dengue-2 (Strain New Guinea C); experiment: Viral yield assay against Dengue-2 in Vero cells; assay type: cell-based, Dengue virus; settings: Dengue virus, read-out: Activity (EC50 in μM) DENV-2
In short: (§1)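 Virus yield, titered on Vero cells from cultures harvested at 48 h post infection, gave the EC50. Cultures were infected at MOI 0.1 with dengue-2 and treated with compound or DMSO at 37° C. DENV-1 and DENV-4 were determined similarly.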

DENV-4 = experiment: Viral yield assay against DENV-4 in Vero cells; assay type: cell-based; settings: Dengue virus
In short: as §1

DENV-1 = experiment: Viral yield assay against DENV-1 in Vero cells; assay type: cell-based; settings: Dengue virus
In short: as §1

DENV-3 = experiment: Viral yield assay against DENV-3 in Vero cells; assay type: cell-based; settings: Dengue virus
In short: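 Progeny virus from compound-treated Vero monolayers infected at an MOI of 0.1 is collected after 48 h at 37° C and titered on Vero cells. DMSO serves as control.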

[2] = DENV2, viral yield assay, Vero cells, MOI 0.1, 48 hours post infection

| SMILES | EC50 ([1]; DENV2, Vero, 48 h) | EC50 (DENV-4; DENV4, viral yield assay) | EC50 (DENV-1; DENV1, viral yield assay) | EC50 (DENV-3; DENV3, viral yield assay) | EC50 [1, 2] | EC50 ([1]; DENV2, Vero cells) | EC50 (DENV-4; DENV4) | EC50 (DENV-1; DENV1) | EC50 (DENV-3; DENV3) |
| --- | --- | --- | --- | --- | --- | --- | --- | --- | --- |
| Nc1c(C(=O)Nc2ccc3c(c2)OCO3)sc2nc(-c3ccc4c(c3)OCO4)ccc12 [Compound 591, 3-amino-N,6-bis(1,3-benzodioxol-5-yl) thieno[2,3-b]pyridine-2-carboxamide] | < 5 µM | < 5 µM | < 5 µM | < 5 µM | – | – | – | – | – |
| CN1CCc2nc3sc(C(=O)Nc4nnc(-c5ccccc5)s4)c(N)c3cc2C1 [Compound 301, 3-amino-6-methyl-N-(5-phenyl-1,3,4-thiadiazol-2-yl)-7,8-dihydro-5H-thieno[2,3-b][1,6]naphthyridine-2-carboxamide] | – | < 5 µM | < 5 µM | 5 to 25 µM | < 5 µM | – | – | – | – |
| NCC(=O)Nc1c(C(=O)Nc2nnc(-c3ccccc3)s2)sc2nc(Cl)ccc12 [Compound 361, 3-[(2-aminoacetyl)amino]-6-chloro-N-(5-phenyl-1,3,4-thiadiazol-2-yl)thieno[2,3-b]pyridine-2-carboxamide] | – | – | – | – | – | < 5 µM | > 25 µM | < 5 µM | < 5 µM |
| COc1ccc(OC)c(NC(=O)c2sc3nc(-c4cccs4)ccc3c2N)c1 [Compound 441, 3-amino-N-(2,5-dimethoxyphenyl)-6-(2-thienyl)thieno[2,3-b]pyridine-2-carboxamide] | < 5 µM | < 5 µM | < 5 µM | < 5 µM | – | – | – | – | – |
| Nc1c(C(=O)Nc2cccc(Cl)c2Cl)sc2nc(-c3cccs3)ccc12 [Compound 434, 3-amino-N-(2,3-dichlorophenyl)-6-(2-thienyl)thieno[2,3-b]pyridine-2-carboxamide] | – | < 5 µM | < 5 µM | < 5 µM | < 5 µM | – | – | – | – |
| COc1ccc(NC(=O)c2sc3nc(-c4ccc(F)cc4)ccc3c2N)cc1 [Compound 535, 3-amino-6-(4-fluorophenyl)-N-(4-methoxyphenyl)thieno[2,3-b]pyridine-2-carboxamide] | – | < 5 µM | < 5 µM | < 5 µM | < 5 µM | – | – | – | – |
| Nc1c(C(=O)Nc2nnc(-c3ccccc3)s2)sc2nc3c(cc12)C(O)CCCC3 (centres unmarked) [Compound 329] | – | < 5 µM | < 5 µM | 5 to 25 µM | < 5 µM | – | – | – | – |
| CCCCSc1ccccc1NC(=O)c1sc2nc(-c3cccc(OC)c3)ccc2c1N [Compound 572, 3-amino-N-(2-butylsulfanylphenyl)-6-(3-methoxyphenyl)thieno[2,3-b]pyridine-2-carboxamide] | – | < 5 µM | < 5 µM | < 5 µM | < 5 µM | – | – | – | – |
| Cc1ccc(-c2ccc3c(N)c(C(=O)Nc4ccc(Br)cc4)sc3n2)cc1 [Compound 485, 3-amino-N-(4-bromophenyl)-6-(p-tolyl) thieno[2,3-b]pyridine-2-carboxamide] | – | < 5 µM | < 5 µM | < 5 µM | < 5 µM | – | – | – | – |
| COc1ccc(-c2ccc3c(N)c(C(=O)Nc4cc(Cl)ccc4Cl)sc3n2)cc1OC [Compound 575, 3-amino-N-(2,5-dichlorophenyl)-6-(3,4-dimethoxyphenyl)thieno[2,3-b]pyridine-2-carboxamide] | – | < 5 µM | < 5 µM | < 5 µM | < 5 µM | – | – | – | – |
| Cc1ccc(NC(=O)c2sc3nc(-c4ccc(C)cc4)ccc3c2N)cc1 [Compound 636, 3-amino-N,6-bis(p-tolyl)thieno[2,3-b] pyridine-2-carboxamide] | – | < 5 µM | < 5 µM | < 5 µM | < 5 µM | – | – | – | – |
| Nc1c(C(=O)Nc2ccc(Cl)cc2F)sc2nc(-c3ccc(F)cc3)ccc12 [Compound 617, 3-amino-N-(4-chloro-2-fluoro-phenyl)-6-(4-fluorophenyl)thieno[2,3-b]pyridine-2-carboxamide] | – | < 5 µM | < 5 µM | < 5 µM | < 5 µM | – | – | – | – |
| COc1ccc(-c2ccc3c(N)c(C(=O)Nc4cccc(C(F)(F)F)c4)sc3n2)cc1OC [Compound 476, 3-amino-6-(3,4-dimethoxyphenyl)-N-[3-(trifluoromethyl)phenyl]thieno[2,3-b] pyridine-2-carboxamide] | – | < 5 µM | < 5 µM | < 5 µM | < 5 µM | – | – | – | – |
| Cc1ccnc2sc(C(=O)Nc3nnc(-c4ccccc4)s3)c(N)c12 [Compound 288, 3-amino-4-methyl-N-(5-phenyl-1,3,4-thiadiazol-2-yl)thieno[2,3-b]pyridine-2-carboxamide] | – | < 5 µM | < 5 µM | 5 to 25 µM | < 5 µM | – | – | – | – |
| COc1cccc(-c2ccc3c(N)c(C(=O)Nc4ccc(OC(F)(F)F)cc4)sc3n2)c1 [Compound 430, 3-amino-6-(3-methoxyphenyl)-N-[4-(trifluoromethoxy)phenyl]thieno[2,3-b] pyridine-2-carboxamide] | – | < 5 µM | < 5 µM | < 5 µM | < 5 µM | – | – | – | – |
| COc1ccc(NC(=O)c2sc3nc(-c4cccs4)ccc3c2N)cc1 [Compound 427, 3-amino-N-(4-methoxyphenyl)-6-(2-thienyl)thieno[2,3-b]pyridine-2-carboxamide] | – | < 5 µM | < 5 µM | < 5 µM | < 5 µM | – | – | – | – |
| Nc1c(C(=O)Nc2ccccc2)sc2nc(-c3ccc(Cl)cc3)ccc12 [Compound 631, 3-amino-6-(4-chlorophenyl)-N-phenyl-thieno[2,3-b]pyridine-2-carboxamide] | – | < 5 µM | < 5 µM | < 5 µM | < 5 µM | – | – | – | – |
| O=C(O)CC(=O)Nc1c(C(=O)Nc2cccc(C(F)(F)F)c2)sc2nc(-c3cccs3)ccc12 [Compound 302, 3-oxo-3-[[6-(2-thienyl)-2-[[3-(trifluoromethyl)phenyl]carbamoyl]thieno[2,3-b]pyridin-3-yl]amino]propanoic acid] | – | – | – | – | – | < 5 µM | < 5 µM | < 5 µM | 5 to 25 µM |
| COc1ccc(-c2ccc3c(N)c(C(=O)Nc4ccc(C(C)=O)cc4)sc3n2)cc1 [Compound 494, N-(4-acetylphenyl)-3-amino-6-(4-methoxyphenyl)thieno[2,3-b]pyridine-2-carboxamide] | < 5 µM | < 5 µM | < 5 µM | 5 to 25 µM | – | – | – | – | – |
| COc1cccc(-c2ccc3c(N)c(C(=O)Nc4ccc(OC)cc4OC)sc3n2)c1 [Compound 512, 3-amino-N-(2,4-dimethoxyphenyl)-6-(3-methoxyphenyl)thieno[2,3-b]pyridine-2-carboxamide] | – | < 5 µM | < 5 µM | < 5 µM | < 5 µM | – | – | – | – |
| Nc1c(C(=O)Nc2cccc(Cl)c2)sc2nc(-c3cccs3)ccc12 [Compound 445, 3-amino-N-(3-chlorophenyl)-6-(2-thienyl)thieno[2,3-b]pyridine-2-carboxamide] | – | < 5 µM | < 5 µM | < 5 µM | < 5 µM | – | – | – | – |
| COc1cccc(-c2ccc3c(N)c(C(=O)Nc4cccc(C(F)(F)F)c4)sc3n2)c1 [Compound 450, 3-amino-6-(3-methoxyphenyl)-N-[3-(trifluoromethyl)phenyl]thieno[2,3-b] pyridine-2-carboxamide] | – | < 5 µM | < 5 µM | < 5 µM | < 5 µM | – | – | – | – |
| Nc1c(C(=O)Nc2ccc(Br)cc2F)sc2nc(-c3ccc(F)cc3)ccc12 [Compound 616, 3-amino-N-(4-bromo-2-fluoro-phenyl)-6-(4-fluorophenyl)thieno[2,3-b]pyridine-2-carboxamide] | – | < 5 µM | < 5 µM | < 5 µM | < 5 µM | – | – | – | – |
| Nc1c(C(=O)Nc2ccc(C(F)(F)F)cc2)sc2nc(-c3ccncc3)ccc12 [Compound 465, 3-amino-6-(4-pyridyl)-N-[4-(trifluoromethyl)phenyl]thieno[2,3-b] pyridine-2-carboxamide] | – | < 5 µM | < 5 µM | < 5 µM | < 5 µM | – | – | – | – |
| Nc1c(C(=O)Nc2ccc(OC(F)F)cc2)sc2nc(-c3ccc(Cl)cc3)ccc12 [Compound 340, 3-amino-6-(4-chlorophenyl)-N-[4-(difluoro-methoxy)phe-nyl]thieno[2,3-b]pyridine-2-carboxamide] | – | < 5 µM | < 5 µM | < 5 µM | < 5 µM | – | – | – | – |
| COc1ccc(NC(=O)c2sc3nc(-c4cccc(OC)c4)ccc3c2N)cc1 [Compound 506, 3-amino-6-(3-methoxyphenyl)-N-(4-methoxyphenyl)thieno[2,3-b]pyridine-2-carboxamide] | – | < 5 µM | < 5 µM | < 5 µM | < 5 µM | – | – | – | – |
| Nc1c(C(=O)Nc2ccc(OC(F)(F)F)cc2)sc2nc3c(cc12)CCCCC3 [Compound 369, 3-amino-N-(4-(trifluroomethoxy)phenyl)-6,7,8,9-tetrahydro-5H-cyclohepta[b]thieno [3,2-e]pyridine-2-carboxamide] | – | < 5 µM | 5 to 25 µM | < 5 µM | < 5 µM | – | – | – | – |
| Nc1c(C(=O)Nc2ccc(Br)cc2)sc2nc(-c3ccco3)ccc12 [Compound 439, 3-amino-N-(4-bromophenyl)-6-(2-furyl)thieno[2,3-b]pyridine-2-carboxamide] | < 5 µM | < 5 µM | < 5 µM | < 5 µM | – | – | – | – | – |
| Nc1c(C(=O)Nc2cc(F)ccc2F)sc2nc(-c3cccs3)ccc12 [Compound 470, 3-amino-N-(2,5-difluorophenyl)-6-(2-thienyl)thieno[2,3-b]pyridine-2-carboxamide] | < 5 µM | < 5 µM | < 5 µM | < 5 µM | – | – | – | – | – |
